Reference: the NIST ThermoML archive (doi:10.1016/j.jct.2018.01.015)
± gives the expanded uncertainty stated by the source.

Test: xn = mol fraction of the nth substance listed
Conditions: Gas, rotating-body viscometer for gases

SMILES: N#N [nitrogen] + O=C=O
- viscosity (253.16 K, 203.1 kPa, x1 = 0.7498): 0.01498 ± 4.6e-05 mPa·s
- viscosity (253.16 K, 399 kPa, x1 = 0.7498): 0.01501 ± 4.6e-05 mPa·s
- viscosity (253.16 K, 601.1 kPa, x1 = 0.7498): 0.01505 ± 4.6e-05 mPa·s
- viscosity (253.16 K, 797.1 kPa, x1 = 0.7498): 0.01509 ± 4.6e-05 mPa·s
- viscosity (253.16 K, 998.4 kPa, x1 = 0.7498): 0.01514 ± 4.6e-05 mPa·s
- viscosity (253.17 K, 100.3 kPa, x1 = 0.7498): 0.01495 ± 4.6e-05 mPa·s
- viscosity (253.17 K, 108.1 kPa, x1 = 0.4996): 0.01423 ± 4.2e-05 mPa·s
- viscosity (253.17 K, 200.4 kPa, x1 = 0.4996): 0.01425 ± 4.2e-05 mPa·s
- viscosity (253.17 K, 398.3 kPa, x1 = 0.4996): 0.01427 ± 4.2e-05 mPa·s
- viscosity (253.17 K, 596.2 kPa, x1 = 0.4996): 0.01431 ± 4.2e-05 mPa·s
- viscosity (253.17 K, 798.8 kPa, x1 = 0.4996): 0.01435 ± 4.2e-05 mPa·s
- viscosity (253.18 K, 110.4 kPa, x1 = 0.2479): 0.01347 ± 5.3e-05 mPa·s
- viscosity (253.18 K, 203.7 kPa, x1 = 0.2479): 0.01348 ± 5.3e-05 mPa·s
- viscosity (253.18 K, 396.3 kPa, x1 = 0.2479): 0.01348 ± 5.3e-05 mPa·s
- viscosity (253.18 K, 605.2 kPa, x1 = 0.2479): 0.01352 ± 5.3e-05 mPa·s
- viscosity (253.21 K, 100.8 kPa, x1 = 1): 0.01561 ± 3e-05 mPa·s
- viscosity (253.21 K, 200.9 kPa, x1 = 1): 0.01564 ± 3e-05 mPa·s
- viscosity (253.21 K, 400.7 kPa, x1 = 1): 0.01566 ± 3e-05 mPa·s
- viscosity (253.21 K, 600.8 kPa, x1 = 1): 0.01571 ± 3e-05 mPa·s
- viscosity (253.21 K, 800.8 kPa, x1 = 1): 0.01574 ± 3e-05 mPa·s
- viscosity (253.21 K, 1000.9 kPa, x1 = 1): 0.01579 ± 3e-05 mPa·s
- viscosity (253.21 K, 1200.9 kPa, x1 = 1): 0.01584 ± 3e-05 mPa·s
- viscosity (273.19 K, 108.8 kPa, x1 = 0.7498): 0.01597 ± 4.7e-05 mPa·s
- viscosity (273.19 K, 109.2 kPa, x1 = 0.4996): 0.01525 ± 4.2e-05 mPa·s
- viscosity (273.19 K, 201 kPa, x1 = 0.7498): 0.01599 ± 4.7e-05 mPa·s
- viscosity (273.19 K, 400.9 kPa, x1 = 0.4996): 0.0153 ± 4.2e-05 mPa·s
- viscosity (273.19 K, 401.7 kPa, x1 = 0.7498): 0.01602 ± 4.7e-05 mPa·s
- viscosity (273.19 K, 600.3 kPa, x1 = 0.7498): 0.01605 ± 4.7e-05 mPa·s
- viscosity (273.19 K, 603.1 kPa, x1 = 0.4996): 0.01533 ± 4.2e-05 mPa·s
- viscosity (273.19 K, 800.1 kPa, x1 = 0.4996): 0.01537 ± 4.2e-05 mPa·s
- viscosity (273.19 K, 800.2 kPa, x1 = 0.7498): 0.0161 ± 4.7e-05 mPa·s
- viscosity (273.19 K, 1000.1 kPa, x1 = 0.7498): 0.01613 ± 4.7e-05 mPa·s
- viscosity (273.19 K, 1200.6 kPa, x1 = 0.7498): 0.01619 ± 4.7e-05 mPa·s
- viscosity (273.2 K, 201.1 kPa, x1 = 0.2479): 0.01448 ± 5.3e-05 mPa·s
- viscosity (273.2 K, 205.6 kPa, x1 = 0.4996): 0.01527 ± 4.2e-05 mPa·s
- viscosity (273.2 K, 397.9 kPa, x1 = 0.2479): 0.0145 ± 5.3e-05 mPa·s
- viscosity (273.2 K, 601.6 kPa, x1 = 0.2479): 0.01453 ± 5.3e-05 mPa·s
- viscosity (273.2 K, 1004.5 kPa, x1 = 0.4996): 0.01541 ± 4.2e-05 mPa·s
- viscosity (273.21 K, 108.1 kPa, x1 = 0.2479): 0.01448 ± 5.3e-05 mPa·s
- viscosity (273.21 K, 793.9 kPa, x1 = 0.2479): 0.01457 ± 5.3e-05 mPa·s
- viscosity (273.24 K, 100.7 kPa, x1 = 1): 0.01659 ± 3e-05 mPa·s
- viscosity (273.24 K, 200.8 kPa, x1 = 1): 0.01661 ± 3e-05 mPa·s
- viscosity (273.24 K, 400.5 kPa, x1 = 1): 0.01664 ± 3e-05 mPa·s
- viscosity (273.24 K, 600.4 kPa, x1 = 1): 0.01667 ± 3e-05 mPa·s
- viscosity (273.24 K, 800.6 kPa, x1 = 1): 0.01671 ± 3e-05 mPa·s
- viscosity (273.24 K, 1000.6 kPa, x1 = 1): 0.01674 ± 3e-05 mPa·s
- viscosity (273.24 K, 1499.8 kPa, x1 = 1): 0.01685 ± 3e-05 mPa·s
- viscosity (298.19 K, 108.9 kPa, x1 = 0.7498): 0.01719 ± 4.4e-05 mPa·s
- viscosity (298.19 K, 196.7 kPa, x1 = 0.7498): 0.01721 ± 4.4e-05 mPa·s
- viscosity (298.19 K, 402.3 kPa, x1 = 0.7498): 0.01724 ± 4.4e-05 mPa·s
- viscosity (298.19 K, 604.2 kPa, x1 = 0.7498): 0.01727 ± 4.4e-05 mPa·s
- viscosity (298.19 K, 801 kPa, x1 = 0.7498): 0.0173 ± 4.4e-05 mPa·s
- viscosity (298.19 K, 999.3 kPa, x1 = 0.7498): 0.01734 ± 4.4e-05 mPa·s
- viscosity (298.19 K, 1498.4 kPa, x1 = 0.7498): 0.01744 ± 4.4e-05 mPa·s
- viscosity (298.2 K, 202.6 kPa, x1 = 0.7498): 0.0172 ± 4.4e-05 mPa·s
- viscosity (298.2 K, 390.5 kPa, x1 = 0.7498): 0.01724 ± 4.4e-05 mPa·s
- viscosity (298.2 K, 599.6 kPa, x1 = 0.7498): 0.01727 ± 4.4e-05 mPa·s
- viscosity (298.2 K, 807 kPa, x1 = 0.7498): 0.0173 ± 4.4e-05 mPa·s
- viscosity (298.2 K, 1008.5 kPa, x1 = 0.7498): 0.01734 ± 4.4e-05 mPa·s
- viscosity (298.2 K, 1501.4 kPa, x1 = 0.7498): 0.01744 ± 4.4e-05 mPa·s
- viscosity (298.21 K, 108 kPa, x1 = 0.4996): 0.0165 ± 3.1e-05 mPa·s
- viscosity (298.21 K, 108.7 kPa, x1 = 0.2479): 0.01571 ± 4.2e-05 mPa·s
- viscosity (298.21 K, 109 kPa, x1 = 0.4996): 0.01649 ± 3.1e-05 mPa·s
- viscosity (298.21 K, 109 kPa, x1 = 0.7498): 0.01719 ± 4.4e-05 mPa·s
- viscosity (298.21 K, 201.9 kPa, x1 = 0.4996): 0.01651 ± 3.1e-05 mPa·s
- viscosity (298.21 K, 204.7 kPa, x1 = 0.4996): 0.0165 ± 3.1e-05 mPa·s
- viscosity (298.21 K, 205.2 kPa, x1 = 0.2479): 0.01572 ± 4.2e-05 mPa·s
- viscosity (298.21 K, 395.1 kPa, x1 = 0.2479): 0.01574 ± 4.2e-05 mPa·s
- viscosity (298.21 K, 399.1 kPa, x1 = 0.4996): 0.01654 ± 3.1e-05 mPa·s
- viscosity (298.21 K, 402.3 kPa, x1 = 0.4996): 0.01654 ± 3.1e-05 mPa·s
- viscosity (298.21 K, 593.4 kPa, x1 = 0.4996): 0.01656 ± 3.1e-05 mPa·s
- viscosity (298.21 K, 602.9 kPa, x1 = 0.2479): 0.01577 ± 4.2e-05 mPa·s
- viscosity (298.21 K, 603.8 kPa, x1 = 0.4996): 0.01657 ± 3.1e-05 mPa·s
- viscosity (298.21 K, 800.9 kPa, x1 = 0.4996): 0.0166 ± 3.1e-05 mPa·s
- viscosity (298.21 K, 803.6 kPa, x1 = 0.4996): 0.01661 ± 3.1e-05 mPa·s
- viscosity (298.21 K, 807.6 kPa, x1 = 0.2479): 0.01581 ± 4.2e-05 mPa·s
- viscosity (298.21 K, 1000 kPa, x1 = 0.4996): 0.01664 ± 3.1e-05 mPa·s
- viscosity (298.21 K, 1002.4 kPa, x1 = 0.2479): 0.01585 ± 4.2e-05 mPa·s
- viscosity (298.21 K, 1003.3 kPa, x1 = 0.4996): 0.01664 ± 3.1e-05 mPa·s
- viscosity (298.21 K, 1202 kPa, x1 = 0.4996): 0.0167 ± 3.1e-05 mPa·s
- viscosity (298.21 K, 1204.4 kPa, x1 = 0.4996): 0.01669 ± 3.1e-05 mPa·s
- viscosity (298.22 K, 107.9 kPa, x1 = 0.2479): 0.01571 ± 4.2e-05 mPa·s
- viscosity (298.22 K, 204.8 kPa, x1 = 0.2479): 0.01572 ± 4.2e-05 mPa·s
- viscosity (298.22 K, 401.2 kPa, x1 = 0.2479): 0.01575 ± 4.2e-05 mPa·s
- viscosity (298.22 K, 602.1 kPa, x1 = 0.2479): 0.01578 ± 4.2e-05 mPa·s
- viscosity (298.22 K, 794.6 kPa, x1 = 0.2479): 0.01581 ± 4.2e-05 mPa·s
- viscosity (298.22 K, 1003 kPa, x1 = 0.2479): 0.01585 ± 4.2e-05 mPa·s
- viscosity (298.24 K, 800.5 kPa, x1 = 1): 0.01785 ± 2.5e-05 mPa·s
- viscosity (298.25 K, 99.6 kPa, x1 = 1): 0.01776 ± 2.5e-05 mPa·s
- viscosity (298.25 K, 100.7 kPa, x1 = 1): 0.01777 ± 2.5e-05 mPa·s
- viscosity (298.25 K, 200.5 kPa, x1 = 1): 0.01778 ± 2.5e-05 mPa·s
- viscosity (298.25 K, 400.7 kPa, x1 = 1): 0.0178 ± 2.5e-05 mPa·s
- viscosity (298.25 K, 400.8 kPa, x1 = 1): 0.0178 ± 2.5e-05 mPa·s
- viscosity (298.25 K, 600.2 kPa, x1 = 1): 0.01783 ± 2.5e-05 mPa·s
- viscosity (298.25 K, 1000.1 kPa, x1 = 1): 0.01789 ± 2.5e-05 mPa·s
- viscosity (298.25 K, 1500.2 kPa, x1 = 1): 0.01799 ± 2.5e-05 mPa·s
- viscosity (323.2 K, 109.1 kPa, x1 = 0.7498): 0.01837 ± 5.1e-05 mPa·s
- viscosity (323.2 K, 198.2 kPa, x1 = 0.7498): 0.01838 ± 5.1e-05 mPa·s
- viscosity (323.2 K, 393.8 kPa, x1 = 0.7498): 0.01841 ± 5.1e-05 mPa·s
- viscosity (323.2 K, 600.2 kPa, x1 = 0.7498): 0.01844 ± 5.1e-05 mPa·s
- viscosity (323.2 K, 800.3 kPa, x1 = 0.7498): 0.01847 ± 5.1e-05 mPa·s
- viscosity (323.2 K, 1000.9 kPa, x1 = 0.7498): 0.0185 ± 5.1e-05 mPa·s
- viscosity (323.2 K, 1500.1 kPa, x1 = 0.7498): 0.0186 ± 5.1e-05 mPa·s
- viscosity (323.22 K, 108.4 kPa, x1 = 0.2479): 0.01691 ± 5.5e-05 mPa·s
- viscosity (323.22 K, 109.2 kPa, x1 = 0.4996): 0.01769 ± 4.2e-05 mPa·s
- viscosity (323.22 K, 196.1 kPa, x1 = 0.2479): 0.01693 ± 5.5e-05 mPa·s
